Experimental findings from patent US20230255972A1, “PYRIMIDINE COMPOUND-CONTAINING COMBINATION TO BE USED IN TUMOR TREATMENT” (TAIHO PHARMACEUTICAL CO., LTD., priority 2020, published 2023) are described below.

pIC50: −log10 of the molar value.

For assay [1], the target named is T1, human HER2 exon 20 insertion mutant (A775_G776insYVMA) protein (Homo sapiens, UniProt P04626, INS775YVMA).
T1 construct: purchased SignalChem
The assay is described as follows: Inhibitory action (in vitro) against HER2 exon 20 insertion mutant phosphorylation activity. The format is biochemical. The following applies: pre-incubated 30 minutes, ATP 200 μM, 25°C, 220 minutes; read-out: HER2ex20insYVMA inhibitory activity IC50 value.

A further assay relates to MCF10A_EGFR cells. Description: Growth inhibitory activity against MCF10A_EGFR (EGFR-WT). The format is cell-based. To be noted: Homo sapiens, 72 h; 3 days; read-out: Cell growth inhibitory activity GI 50 value, MCF10A_EGFR cell (EGFR-WT). The protocol: (§1) Test Example 7 Measurement of Growth Inhibitory Activity Against EGFR Overexpressing Cell Line and Exon 20 Insertion Mutant EGFR Expressing Cell Line
(§2) Growth inhibitory activity against an EGFR overexpressing cell line and an exon 20 insertion mutant EGFR expressing cell line was evaluated using MDA-MB-468 cells (ATCC) as an EGFR overexpressing human breast cancer cell line; NCI-H1975 cells (ATCC) as L858R and T790M mutant EGFR-positive human lung cancer cells; and MCF10A_EGFR cells, MCF10A_EGFR/V769_D770insASV cells, MCF10A_EGFR/D770_N771insSVD cells, and MCF10A_EGFR/H773_V774insNPH cells (Fukushima Medical University) which were cells obtained by introducing the EGFR gene (WT, […], D770_N771insSVD mutant, H773_V774insNPH mutant) into MCF10A cells as human normal mammary gland cells.
(§3) The MDA-MB-468 cells were suspended in Leibovitz's L-15 medium containing 10% inactivated fetal bovine serum. The NCI-H1975 cells were suspended in RPMI-1640 medium containing 10% inactivated fetal bovine serum. The MCF10A_EGFR cells, the MCF10A_EGFR/V769_D770insASV cells, the MCF10A_EGFR/D770_N771insSVD cells, or the MCF10A_EGFR/H773_V774insNPH cells were suspended in DMEM/Ham's F-12 medium (containing L-glutamine, phenol red, HEPES, and sodium pyruvate) containing 10 μg/mL insulin, 500 ng/mL hydrocortisone, 5 μmol/L forskolin, and 5% inactivated horse serum in terms of their final concentrations. Each cell suspension was seeded in each well of a 96-well flat-bottom plate such that the number of cells per well was 500, and was then cultured in a carbon dioxide gas-free culture vessel for the MDA-MB-468 cells and in a 5% carbon dioxide gas-containing culture vessel for the other cells at 37° C. for 1 day. The pyrimidine compound of the present invention was prepared at 1 mM in DMSO and then diluted 1/200 with a medium to prepare a 5 μM solution. […]
(§4) The cells at the start of the culture (day 0) and after the culture (day 3) were counted using CellTiter-Glo(R) 2.0 Reagent (Promega Corp.) according to the protocol recommended by the manufacturer. […]

The subject of assay [2] is MCF10A_EGFR/V769_D770insASV cells. The assay is described as follows: Growth inhibitory activity against MCF10A_EGFR/V769_D770insASV. The format is cell-based. To be noted: Homo sapiens, 72 h; 3 days; read-out: Cell growth inhibitory activity GI 50 value, MCF10A_EGFR/V769_D770insASV cell. The protocol: as §1, §2, §3, §4
Another assay deals with LXF 2478 cells. The assay is described as follows: Growth inhibitory activity against LXF 2478 (V769_D770insASV mutant EGFR-positive). Type of assay: cell-based. To be noted: Homo sapiens, LXF 2478, 72 h; 3 days; read-out: Cell growth inhibitory activity GI 50 value, LXF 2478 cell.

T1 sequence (P04626 with tags, fused parts or gaps INS775YVMA limits assumed): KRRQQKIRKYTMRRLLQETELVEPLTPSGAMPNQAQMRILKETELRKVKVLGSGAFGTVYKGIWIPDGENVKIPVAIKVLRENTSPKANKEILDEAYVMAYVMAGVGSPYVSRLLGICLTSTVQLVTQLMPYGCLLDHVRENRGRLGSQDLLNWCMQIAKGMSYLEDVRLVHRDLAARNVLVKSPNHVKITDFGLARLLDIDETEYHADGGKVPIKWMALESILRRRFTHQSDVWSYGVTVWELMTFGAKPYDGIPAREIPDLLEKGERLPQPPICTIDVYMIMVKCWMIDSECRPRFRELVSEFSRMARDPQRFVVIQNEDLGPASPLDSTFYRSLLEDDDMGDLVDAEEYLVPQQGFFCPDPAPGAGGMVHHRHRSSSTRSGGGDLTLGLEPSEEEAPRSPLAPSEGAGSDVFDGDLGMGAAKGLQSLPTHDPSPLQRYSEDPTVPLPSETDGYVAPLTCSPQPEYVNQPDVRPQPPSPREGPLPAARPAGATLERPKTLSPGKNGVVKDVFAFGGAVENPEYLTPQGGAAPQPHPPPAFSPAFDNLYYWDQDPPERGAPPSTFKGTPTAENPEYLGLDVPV

For orientation: pIC50 means −log10 of the IC50, conventionally taken in molar units. `C=CC(=O)N1C[C@H](n2c(C#CC)c(C(=O)N[C@H](C)c3ccccc3)c3c(N)ncnc32)C[C@@H]1C` [Example 2, 7-((3R,5S)-1-acryloyl-5-methylpyrrolidin-3-yl)-4-amino-N—((R)-1-phenylethyl)-6-(prop-1-yn-1-yl)-7H-pyrrolo[2,3-d]pyrimidine-5-carboxamide]: in assay [1], the pIC50 is above 9.52. Besides, the figures for the GI50 (in the assay on MCF10A_EGFR cells; in assay [2]; with LXF 2478 cells) were 55 nM, 6.7 nM and 11 nM, respectively.

In the case of `C=CC(=O)N1C[C@H](n2c(C#CC3CC3)c(C(=O)N[C@H](C)c3ccccc3)c3c(N)ncnc32)C[C@@H]1C` [Example 11, 7-((3R,5S)-1-acryloyl-5-methylpyrrolidin-3-yl)-4-amino-6-(cyclopropylethynyl)-N—((R)-1-phenylethyl)-7H-pyrrolo[2,3-d]pyrimidine-5-carboxamide], in assay [1], the negative logarithm of the IC50 (pIC50) is above 9.52. In addition, the GI50 was determined as 81 nM in the assay with MCF10A_EGFR cells, 7.3 nM in assay [2] and 19 nM in the assay on LXF 2478 cells.

Consider `C=CC(=O)N1C[C@H](n2c(C#CC(C)(C)C)c(C(=O)N[C@H](C)c3ccccc3)c3c(N)ncnc32)C[C@@H]1C` [Example 12, 7-((3R,5S)-1-acryloyl-5-methylpyrrolidin-3-yl)-4-amino-6-(3,3-dimethylbut-1-yn-1-yl)-N—((R)-1-phenylethyl)-7H-pyrrolo[2,3-d]pyrimidine-5-carboxamide], for which the negative logarithm of the IC50 (pIC50) in assay [1] is 9.41. In addition, the figures for the GI50 (in the assay with MCF10A_EGFR cells; in assay [2]; in the assay with LXF 2478 cells) were 206 nM, 24 nM and 48 nM, respectively.
